Data: the METLIN SMRT retention time set (Domingo-Almenara et al. 2019)

Test: gradient 5% acetonitrile 3 min, to 50% in 2 min, to 85% in 15 min, held 3 min, 100 µL/min
Conditions: column: Zorbax Extend-C18 2.1 x 50 mm; eluents: water / acetonitrile, 0.1% formic acid
Summary of the method: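 The mobile phases were water and acetonitrile, each with 0.1% formic acid, pumped at 100 μL/min through a Zorbax Extend-C18 column (2.1 × 50 mm, 1.8 μm). Pure standards were injected as mixtures of ~100 molecules and detected by a quadrupole time-of-flight mass spectrometer in positive and negative ionization mode. Retention time came from computationally picked adduct peaks, each inspected by hand.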

| SMILES | RP-LC retention time [s] |
| --- | --- |
| Cc1c(C)n(C)c2ccc(C(N)=O)cc12 | 704 |
| Cc1ccc(S(=O)(=O)N2CCC(CN3CCCC(C)C3)CC2)cc1Cl (centres undefined) | 683 |
| C=CCN1C(=O)C2(c3cc(Br)ccc31)c1[nH]c3ccccc3c1CCN2C(C)=O (centres undefined) | 929 |
| Cc1cc(NC(=O)c2nc3ccccc3s2)sn1 | 809 |
| O=C(NCC1CCCO1)c1cn2ccccc2n1 (centres undefined) | 565 |
| COc1ccc(-c2nc3sc(C(N)=O)c(C)n3c2NC(C)(C)C)cc1 | 705 |
| CCNC(=O)C1CCCN(C(=O)Nc2ccc(NC(=O)Nc3ccc(C)c(C)c3)cc2)C1 (centres undefined) | 748 |
| Cc1ccc(NC(=O)Cc2c(C)nn(-c3nc(-c4ccc(Cl)cc4)cs3)c2C)cc1C | 852 |
| N#Cc1cccc(CN2CCCC2c2nc(-c3ccccc3)n[nH]2)c1 (centres undefined) | 616 |
| CN1CCc2nnc(C3CCN(C(=O)Nc4ccc(Cl)cc4F)C3)n2CC1 (centres undefined) | 573 |
| COc1ccc2c(c1)C1(CCN(S(=O)(=O)c3cc(F)cc(F)c3)C1)C(=O)N2C (centres undefined) | 940 |
| CCN(CC)CCNC(=O)Cc1cc(-c2ccc(F)cc2F)on1 | 556 |
| Cc1ccc(NC(=O)Cn2cnc3nc(N4CCCC(C(=O)NC5CC5)C4)sc3c2=O)c(F)c1 (centres undefined) | 680 |
| COc1ccc(CNC(=O)Cn2nc3c4sc(N(C)C)nc4ncn3c2=O)cc1 | 668 |
| Cc1ccn2c(Nc3ccc4c(c3)OCCO4)c(-c3ccc(N4CCOCC4)cc3)nc2c1 | 680 |
| Cc1ccc(Cn2c(N3CCCC(C(=O)NCCc4cccs4)C3)nc3ccsc3c2=O)cc1 (centres undefined) | 1000 |
| N#Cc1c(NC(=O)c2ccc([N+](=O)[O-])cc2Cl)sc2c1CCCC2 | 1050 |
| O=C(Nc1ccc(Cl)cc1C(=O)c1ccccc1)c1ccc(N2C(=O)CCC2=O)cc1 | 896 |
| Nc1nc(-c2ccccc2)c(C(=O)Nc2ccccc2)s1 | 706 |
| O=C1NCCCn2nc(C3CCN(S(=O)(=O)c4ccc5c(c4)CCC5)CC3)cc21 | 800 |
| O=C1CCc2cc(S(=O)(=O)NCCc3ccccc3)cc3c2N1CCC3 | 840 |
| CC(C)n1cc(C2=CCN(S(=O)(=O)c3cccc(C#N)c3)CC2)c2cccnc21 | 995 |
| CCCCn1cc(S(=O)(=O)Nc2ccc(F)cc2Cl)c2cccnc21 | 862 |

| SMILES | RP-LC retention time [s] |
| --- | --- |
| Cc1ccc(Cn2c(N3CCCC(C(=O)Nc4cccc(C)c4)C3)nc3ccsc3c2=O)cc1 (centres undefined) | 1080 |
| COCCc1noc([C@@H]2CC(F)(F)CN2C(=O)c2coc(C)n2)n1 | 705 |
| Cc1cc(S(=O)(=O)N2CCC3(CC2)CCC(O)(CN2CCCC2)CC3)ccc1Cl | 706 |
| CCOC(=O)c1ccc(Nc2ncnc3c2cnn3C)cc1 | 817 |
| COc1ccccc1CNC(=O)C1=C2CCCN2c2ccc(F)cc2S1(=O)=O | 882 |
| COc1cccc(CNC(=O)c2nnc(-c3ccc(S(=O)(=O)N4CCCCC4)cc3)o2)c1 | 960 |
| CCOc1ccc2nc(C(=O)NC3CCCC3)cn2n1 | 822 |
| COc1ccc(-n2c(=O)n(C)c(=O)c3cc(C(=O)Nc4ccccc4)cnc32)cc1 | 862 |
| CCCc1ccc(S(=O)(=O)N2CCc3c(c(-c4nnc(-c5ccccc5F)o4)nn3C)C2)cc1 | 1070 |
| Cc1[nH]c(C(=O)N2CCC(CC(=O)NCCc3c[nH]c4ccccc34)CC2)c(C)c1C | 674 |
| Cn1c(=O)n(CCCC#N)c2cncnc21 | 550 |
| Cc1cccc(NC(=O)Cn2cnc3c(c2=O)CCCC3)c1 | 706 |
| O=S(=O)(c1cccc(-c2nc(-c3ccccc3)no2)c1)N1CCC2(CC1)OCCO2 | 784 |
| CCCC(=O)Nc1nc2ccc(CCC(=O)Nc3cc(Cl)c(OC)cc3OC)cc2s1 | 920 |
| COc1ccc(-c2noc(Cc3nc(-c4ccc(Br)cc4)cs3)n2)cc1OC | 1200 |
| COc1nc2ccccc2nc1N1CCCC(C(=O)N2CCN(c3ccccc3)CC2)C1 (centres undefined) | 1220 |
| CCN(CC)S(=O)(=O)c1c(C)[nH]c(=O)[nH]c1=O | 578 |
| O=C(C1=CN(c2cccc(Cl)c2)c2ccccc2S1(=O)=O)N1CCOCC1 | 782 |
| COCCN1C(=O)c2ccccc2C(C(=O)Nc2ccc(OC)cc2)C12CCCC2 (centres undefined) | 852 |
| O=C(c1csc(-c2ccc(N3CCCCC3)nc2)n1)N1CCN(c2ccccn2)CC1 | 600 |
| Cc1cc(NC(=O)c2c[nH]c3ncccc23)ccc1F | 739 |
| O=C(Nc1ccccc1)N1CC(n2ccnc2)C1 | 569 |
| Cc1ccccc1-c1nnc(CSc2nnc(NC(=O)c3cccc(F)c3)s2)o1 | 976 |

| SMILES | RP-LC retention time [s] |
| --- | --- |
| CCn1ccc2c(cc(C(=O)Nc3ccccc3C(F)(F)F)n2C)c1=O | 742 |
| CC(C)CCNS(=O)(=O)c1ccc(-c2nc(C(C)C)cs2)s1 | 1260 |
| CCOC(=O)c1ccc(NC(=O)Cn2nc3n(c2=O)CCCC3)cc1 | 676 |
| COc1ccc(C(CNC(=O)c2cc(=O)c3cc(Cl)ccc3o2)N(C)C)cc1 (centres undefined) | 650 |
| COc1ccc(S(=O)(=O)N2CCCC(C(=O)N3CCC(Cc4ccccc4)CC3)C2)cc1Cl (centres undefined) | 1170 |
| CCN(CC)CCCCN1c2ccccc2Oc2ccc(Cl)cc21 | 843 |
| O=C(c1ccc(-c2ccsc2)nc1)N1CCN(c2ccccn2)CC1 | 604 |
| COCc1cc(=O)n(Cc2ncc(C)c(OC)c2C)c(N2CCCC2)n1 | 608 |
| CSc1ccc(Cl)c(C(=O)N2CC(=O)Nc3ccccc32)c1 | 796 |
| CCN1C(=O)c2cccnc2Sc2cc(C(=O)NCc3ccccc3F)ccc21 | 803 |
| CCn1nc(C)c(S(=O)(=O)N2CCN(C(=O)C(C)Oc3ccccc3)CC2)c1C (centres undefined) | 780 |
| Cc1cccc(S(=O)(=O)N2CCc3nc(-c4ccc(F)cc4)ncc3C2)c1 | 1140 |
| COc1ccc(OC)c2sc(NC(=O)c3ccc(Cl)s3)nc12 | 990 |
| Cc1ccc(-c2cc(C(=O)N3CCC(NC(=O)c4ccc5c(c4)OCO5)CC3)[nH]n2)c(C)c1 | 787 |
| O=C1NC(c2cccc3ccccc23)Nc2ccc(Cl)cc21 (centres undefined) | 847 |
| CC(C)C(=O)N1CCCC(c2nc(CCNC(=O)C3CCC3)cs2)C1 (centres undefined) | 694 |
| COCCNC(=O)CC1Sc2ncccc2N(CC(C)C)C1=O (centres undefined) | 659 |
| Cn1nc(C(=O)N2CCCC(C(=O)NC3CC3)C2)c2c1CCN(C(=O)CCc1ccccc1)C2 (centres undefined) | 671 |
| COCCn1cc(CCNC(=O)Nc2cccc(Cl)c2F)c2cccnc21 | 798 |
| COc1ccc(CCC(=O)NC2CCN(c3nnc4cccc(C)n34)CC2)cc1 | 647 |
| Cc1oc(-c2cccc(Cl)c2)nc1Cn1c(=O)n(C(C)C)c(=O)c2ccccc21 | 1360 |
| Cc1ccc(N2CCN(C(=O)c3cn4ccc(C)cc4n3)CC2)cc1 | 664 |
| Cc1ccc(-n2ccn3cc(-c4ccc(F)cc4)nc3c2=O)cc1Cl | 924 |

| SMILES | RP-LC retention time [s] |
| --- | --- |
| Cc1ccc(NC(=O)Cn2nc(N3CCCCCC3)c3ccccc3c2=O)cc1C | 1200 |
| Cc1cc2[nH]c(C(=O)Nc3ccccc3F)c(CN(C)C)c2s1 | 654 |
| CCOc1ccccc1CNC(=O)c1c(C)sc2ccn(CC)c(=O)c12 | 893 |
| COc1ccc(-c2c(C)noc2NC(C)=O)cc1S(=O)(=O)N1CCCc2ccccc21 | 856 |
| O=C(CCc1c(-c2ccc(F)cc2)nc2ccccn12)NCc1ccc2c(c1)OCO2 | 655 |
| O=c1c2cc3c(cc2nc(SCc2nc(-c4ccc(F)cc4)no2)n1-c1ccc(F)cc1)OCO3 | 1170 |
| Cn1cccc1-c1cc2n(n1)CCC(=O)N2CCCC(=O)NCCCc1ccccc1 | 833 |
| Cc1ccc2c(c1)N(C(=O)CCC(=O)NCCCN1CCN(C3CCCCC3)CC1)CC(C)O2 (centres undefined) | 603 |
| O=C(CN1C(=O)CCC1=O)Nc1nc(-c2ccc(Cl)cc2Cl)cs1 | 850 |
| CCOC(=O)c1cc(C)nc2c1c(=O)n(Cc1ccccc1C)c(=O)n2C | 872 |
| CCNC(=O)C1CCN(S(=O)(=O)c2cc(-c3noc(CC)n3)cs2)CC1 | 767 |
| COc1ccc(-c2noc(C3(NC(=O)c4ccc(C(F)(F)F)cc4)CCCCC3)n2)cc1 | 1260 |
| O=C(NC1CCCC1)c1ccc2ncnc(N3CCCCC3)c2c1 | 640 |
| CCc1nnc(-c2ccc(S(=O)(=O)N3CCOCC3)o2)o1 | 714 |
| COc1ccc(NC(=O)c2c(O)c3cccnc3n(-c3cccc(F)c3)c2=O)cc1F | 1210 |
| COc1ccccc1-c1nnc(-c2ccc(OC)c(S(=O)(=O)N3CCCCCC3)c2)o1 | 1010 |
| COCc1cc(=O)n(CC(=O)Nc2cccc(SC)c2)c(N2CCOCC2)n1 | 857 |
| COCC(=O)Nc1cnc(-c2cccnc2)nc1 | 554 |
| O=C(CSc1nc2ccccc2s1)OCc1cc(-c2ccco2)on1 | 1010 |
| Cc1ccc(Sc2nccnc2N2CCCC(C(=O)NCc3ccc4c(c3)OCO4)C2)cc1 (centres undefined) | 1060 |
